For 38 compounds, Activity rating and Decrease results are on record in ChEMBL document CHEMBL1122346, “Antihypertensive activity of 6-arylpyrido[2,3-d]pyrimidin-7-amine derivatives. 2. 7-Acyl amide analogues” (J Med Chem, 1983).

Holding throughout (type): functional
Experiment [1] deals with Rattus norvegicus. The experiment is described as follows: Antihypertensive activity in conscious spontaneously hypertensive rats 24 hr following 50 mg/kg p.o.; No significant reduction. The settings on record: route oral.
Experiment [2] is filed under the species Rattus norvegicus. The experiment is described as follows: Maximum percent decrease in blood pressure in SHR ( hour post dose in parentheses).
Experiment [3] relates to Rattus norvegicus. Kind of experiment: Antihypertensive activity in conscious spontaneously hypertensive rats 10 hr following 50 mg/kg p.o.; No significant reduction. The settings on record: route oral.
Experiment [4] concerns Rattus norvegicus. Kind of experiment: Antihypertensive activity in conscious spontaneously hypertensive rats 2 hr following 50 mg/kg p.o.; No significant reduction. The settings on record: route oral.
Experiment [5] deals with Rattus norvegicus. Kind of experiment: Antihypertensive activity in conscious spontaneously hypertensive rats 10 hr following 50 mg/kg p.o.; Range 10-20%. The settings on record: route oral.
In experiment [6] the test system is Rattus norvegicus. Kind of experiment: Antihypertensive activity rating in conscious SHR after 24 h post dose at 10 mg/kg (po); 0=No significant reduction.
Experiment [7] has as its system Rattus norvegicus. The experiment is described as follows: Antihypertensive activity rating in conscious SHR after 10 hr post dose at 10 mg/kg (po); 0=No significant reduction.
In experiment [8] the test system is Rattus norvegicus. The experiment is described as follows: Antihypertensive activity rating in conscious SHR after 2 hr post dose at 10 mg/kg (po); Range 10-20%.
Experiment [9] relates to Rattus norvegicus. Kind of experiment: Antihypertensive activity rating in conscious SHR after 2 hr post dose at 50 mg/kg (po); Range 20-30%.
Experiment [10] concerns Rattus norvegicus. The experiment is described as follows: Antihypertensive activity rating in conscious SHR after 2 hr post dose at 10 mg/kg (po); 0=No significant reduction.
In experiment [11] the test system is Rattus norvegicus. Kind of experiment: Antihypertensive activity rating in conscious SHR after 2 hr post dose at 50 mg/kg (po); Range 10-20%.
In experiment [12] the test system is Rattus norvegicus. The experiment is described as follows: Antihypertensive activity rating in conscious SHR after 24 hr post dose at 50 mg/kg (po); Range 10-20%.
Experiment [13] concerns Rattus norvegicus. The experiment is described as follows: Antihypertensive activity rating in conscious SHR after 10 hr post dose at 50 mg/kg (po); Range 20-30%.
Experiment [14] relates to Rattus norvegicus. Kind of experiment: Antihypertensive activity rating in conscious SHR after 10 hr post dose at 10 mg/kg (po); Range 10-20%.
The test system of experiment [15] is Rattus norvegicus. Kind of experiment: Antihypertensive activity rating in conscious SHR after 24 h post dose at 50 mg/kg (po); Range 20-30%.

The structures appear in SMILES notation.

With `Cc1ncc2cc(-c3c(Cl)cccc3Cl)c(NC(N)=O)nc2n1`, the Activity rating in the experiment on Rattus norvegicus [1], with Rattus norvegicus [3] and with Rattus norvegicus [4] was 0% each time. Also, the Decrease in the experiment filed under Rattus norvegicus [2] is on record as 16%.
On to `C=CCNC(=O)Nc1nc2nc(C)ncc2cc1-c1c(Cl)cccc1Cl`, for which the Activity rating was 0% in the experiment with Rattus norvegicus [1], 10% in the experiment with Rattus norvegicus [5] and 0% with Rattus norvegicus [4]. Moreover, the Decrease in the experiment filed under Rattus norvegicus [2] amounted to 13%.
On to `Cc1ncc2cc(-c3c(Cl)cccc3Cl)c(NC(=O)C(C)C)nc2n1`, for which the Activity rating in the experiment with Rattus norvegicus [6] worked out at 0%; in the experiment with Rattus norvegicus [7], 0%; in the experiment with Rattus norvegicus [8], 10%. The Decrease in the experiment filed under Rattus norvegicus [2] was found to be 15%.
On to `Cc1ncc2cc(-c3c(Cl)cccc3Cl)c(NC(=O)Nc3ccccc3)nc2n1`, for which the Activity rating in the experiment with Rattus norvegicus [1], in the experiment on Rattus norvegicus [3] and in the experiment with Rattus norvegicus [4] was 0% each time.
Consider `CNC(=O)Nc1nc2nc(C)ncc2cc1-c1c(Cl)cccc1Cl`, for which the Activity rating in the experiment on Rattus norvegicus [9] is given as 20%; in the experiment on Rattus norvegicus [1], 0%; with Rattus norvegicus [5], 10%. Further, the Decrease in the experiment filed under Rattus norvegicus [2] was 26%.
Regarding `Cc1ncc2cc(-c3c(Cl)cccc3Cl)c(NC(=O)C(C)(C)C)nc2n1`, the Activity rating with Rattus norvegicus [6], in the experiment on Rattus norvegicus [7] and in the experiment with Rattus norvegicus [10] was 0% each time.
Take `CC(=O)Nc1nc2nc(C)ncc2cc1-c1ccccc1C`: the Activity rating in the experiment on Rattus norvegicus [1], with Rattus norvegicus [3] and with Rattus norvegicus [4] was 0% each time.
With `Cc1ncc2cc(-c3c(Cl)cccc3Cl)c(NC(=O)CNC(=O)OCc3ccccc3)nc2n1`, the Activity rating in the experiment on Rattus norvegicus [11] amounted to 10%; in the experiment with Rattus norvegicus [6] it was 0%; with Rattus norvegicus [12], 10%; in the experiment with Rattus norvegicus [7], 0%; in the experiment on Rattus norvegicus [13] it was 20%; in the experiment on Rattus norvegicus [8], 10%. The Decrease in the experiment filed under Rattus norvegicus [2] was 29%.
Regarding `Cc1ncc2cc(-c3c(Cl)cccc3Cl)c(=O)n(C)c2n1`, the Activity rating with Rattus norvegicus [1], in the experiment on Rattus norvegicus [3] and in the experiment with Rattus norvegicus [4] was 0% each time.
With `CC(=O)Nc1nc2nc(C)nc(NC(C)=O)c2cc1-c1c(Cl)cccc1Cl`, the Activity rating with Rattus norvegicus [1], in the experiment on Rattus norvegicus [3] and in the experiment on Rattus norvegicus [4] was 0% in each case.
Consider `Cc1ncc2cc(-c3c(Cl)cccc3Cl)c(NC(=O)C(Cl)Cl)nc2n1`, for which the results for the Activity rating with Rattus norvegicus [6], with Rattus norvegicus [14] and in the experiment with Rattus norvegicus [8] were 0%, 10% and 10%, respectively. For the same compound, the Decrease in the experiment filed under Rattus norvegicus [2] is 16%.
As for `CC(=O)Nc1nc2ncncc2cc1-c1ccccc1C`, the Activity rating in the experiment with Rattus norvegicus [1], in the experiment with Rattus norvegicus [3] and with Rattus norvegicus [4] was 0% throughout.
For the compound `Cc1ncc2cc(-c3c(Cl)cccc3Cl)c(NC(=O)c3cccc(N(C)C)c3)nc2n1`, the results for the Activity rating with Rattus norvegicus [12], with Rattus norvegicus [5] and in the experiment with Rattus norvegicus [4] were 10%, 10% and 0%, respectively. Besides, in the experiment listed under Rattus norvegicus [2], the Decrease amounted to 15%.
Consider `COc1ccc(CC(=O)Nc2nc3nc(C)ncc3cc2-c2c(Cl)cccc2Cl)cc1OC`, for which the Activity rating in the experiment with Rattus norvegicus [6], in the experiment with Rattus norvegicus [7] and in the experiment on Rattus norvegicus [10] was 0% each time.
For the compound `Cc1ncc2cc(-c3c(Cl)cccc3Cl)c(/N=C/N(C)C)nc2n1`, the Activity rating with Rattus norvegicus [12] is recorded as 10%; in the experiment on Rattus norvegicus [5] it was 10%; with Rattus norvegicus [4] it was 0%. Also, the Decrease in the experiment listed under Rattus norvegicus [2] is given as 17%.
`Cc1ncc2cc(-c3c(Cl)cccc3Cl)c(NC(=O)CN(C)C)nc2n1`: the Activity rating in the experiment on Rattus norvegicus [6] is reported as 0%; with Rattus norvegicus [14] it was 10%; in the experiment on Rattus norvegicus [8] it was 10%. Also, in the experiment listed under Rattus norvegicus [2], the Decrease came out at 18%.
Regarding `C/C(=N\c1nc2nc(C)ncc2cc1-c1c(Cl)cccc1Cl)N(C)C`, the Activity rating in the experiment with Rattus norvegicus [11] is reported as 10%; in the experiment with Rattus norvegicus [12], 10%; in the experiment with Rattus norvegicus [3], 0%. Also, the Decrease in the experiment listed under Rattus norvegicus [2] is listed as 18%.
Consider `C/N=C(\NC)Nc1nc2nc(C)ncc2cc1-c1c(Cl)cccc1Cl`, for which the Activity rating stood at 20% in the experiment on Rattus norvegicus [9], 0% in the experiment on Rattus norvegicus [1] and 10% with Rattus norvegicus [5]. The Decrease in the experiment listed under Rattus norvegicus [2] is recorded as 24%.
The like results for `C/N=C(\N)Nc1nc2nc(C)ncc2cc1-c1c(Cl)cccc1Cl` were, in that order, 20%, 0%, 10% and 24%.
Take `CCSCC(=O)Nc1nc2nc(C)ncc2cc1-c1c(Cl)cccc1Cl`: the Activity rating in the experiment on Rattus norvegicus [6] was 0%; in the experiment with Rattus norvegicus [7], 0%; in the experiment with Rattus norvegicus [8], 10%. Further, the Decrease in the experiment listed under Rattus norvegicus [2] was found to be 19%.
With `CC(=O)Nc1nc2nc(C3CC3)ncc2cc1-c1c(Cl)cccc1Cl`, the Activity rating was determined as 10% with Rattus norvegicus [11], 0% in the experiment on Rattus norvegicus [1] and 10% in the experiment on Rattus norvegicus [5]. Further, in the experiment filed under Rattus norvegicus [2], the Decrease is 24%.
As to `Cc1ncc2cc(-c3c(Cl)cccc3Cl)c(NS(C)(=O)=O)nc2n1`, the Activity rating in the experiment on Rattus norvegicus [11] stood at 10%; in the experiment on Rattus norvegicus [6], 0%; in the experiment with Rattus norvegicus [15], 20%; with Rattus norvegicus [7], 0%; with Rattus norvegicus [5], 10%; in the experiment with Rattus norvegicus [10], 0%. Besides, in the experiment listed under Rattus norvegicus [2], the Decrease was determined as 22%.
On to `CC(=O)Nc1nc2nc(C)nc(C)c2cc1-c1ccccc1C`, for which the Activity rating in the experiment with Rattus norvegicus [1], with Rattus norvegicus [3] and with Rattus norvegicus [4] was 0% throughout.
As for `COc1ccccc1C(=O)Nc1nc2nc(C)ncc2cc1-c1c(Cl)cccc1Cl`, the Activity rating in the experiment on Rattus norvegicus [6], in the experiment with Rattus norvegicus [7] and in the experiment with Rattus norvegicus [10] was 0% each time.
In the case of `Cc1ncc2cc(-c3c(Cl)cccc3Cl)c(NC(=O)c3ccccc3C)nc2n1`, the Activity rating in the experiment on Rattus norvegicus [12] was determined as 10%; with Rattus norvegicus [5], 10%; with Rattus norvegicus [4] it was 0%. Also, the Decrease in the experiment filed under Rattus norvegicus [2] was 23%.
Consider `Cc1ncc2cc(-c3c(Cl)cccc3Cl)c(NC(=O)N(C)C)nc2n1`, for which the Activity rating in the experiment on Rattus norvegicus [11] was 10%; in the experiment with Rattus norvegicus [15], 20%; in the experiment with Rattus norvegicus [5] it was 10%. In the experiment filed under Rattus norvegicus [2], the Decrease was found to be 26%.
With `Cc1ncc2cc(-c3c(Cl)cccc3Cl)c(NC(=O)Cc3ccccc3)nc2n1`, the Activity rating in the experiment on Rattus norvegicus [11], in the experiment with Rattus norvegicus [12] and in the experiment on Rattus norvegicus [5] was 10% each time. Further, the Decrease in the experiment filed under Rattus norvegicus [2] is listed as 17%.
As to `CC(=O)Nc1nc2nc(C)nc(C)c2cc1-c1c(Cl)cccc1Cl`, the figures for the Activity rating with Rattus norvegicus [9], in the experiment with Rattus norvegicus [1] and in the experiment with Rattus norvegicus [3] were 20%, 0% and 0%, respectively. Besides, the Decrease in the experiment filed under Rattus norvegicus [2] was found to be 20%.
Regarding `Cc1ncc2cc(-c3c(Cl)cccc3Cl)c(NC(=O)C3CC3)nc2n1`, the Activity rating in the experiment with Rattus norvegicus [1], in the experiment on Rattus norvegicus [3] and in the experiment on Rattus norvegicus [4] was 0% throughout.
With `Cc1ncc2cc(-c3c(Cl)cccc3Cl)c(NC(=O)c3ccccc3)nc2n1`, the Activity rating with Rattus norvegicus [9], in the experiment with Rattus norvegicus [15] and in the experiment with Rattus norvegicus [13] was 20% each time. Besides, in the experiment listed under Rattus norvegicus [2], the Decrease came out at 30%.
Turning to `COc1ccc(C(=O)Nc2nc3nc(C)ncc3cc2-c2c(Cl)cccc2Cl)cc1OC`, the Activity rating in the experiment on Rattus norvegicus [6] was determined as 0%; with Rattus norvegicus [14] it was 10%; in the experiment on Rattus norvegicus [8], 10%. In addition, in the experiment listed under Rattus norvegicus [2], the Decrease was 16%.
Turning to `CC(=O)Nc1nc2ncncc2cc1-c1c(Cl)cccc1Cl`, the Activity rating in the experiment on Rattus norvegicus [11] was determined as 10%; in the experiment on Rattus norvegicus [1], 0%; in the experiment with Rattus norvegicus [5] it was 10%. The Decrease in the experiment filed under Rattus norvegicus [2] is given as 16%.
Regarding `C/N=C(\S)Nc1nc2nc(C)ncc2cc1-c1c(Cl)cccc1Cl`, the Activity rating with Rattus norvegicus [1] was determined as 0%; in the experiment on Rattus norvegicus [5], 10%; in the experiment on Rattus norvegicus [4] it was 0%. For the same compound, in the experiment listed under Rattus norvegicus [2], the Decrease was determined as 12%.
On to `CN/C(=N/c1nc2nc(C)ncc2cc1-c1c(Cl)cccc1Cl)SC`, for which the Activity rating in the experiment on Rattus norvegicus [1], in the experiment on Rattus norvegicus [3] and with Rattus norvegicus [4] was 0% throughout.
In the case of `Cc1ncc2cc(-c3c(Cl)cccc3Cl)c(NC(=O)Cc3c(Cl)cccc3Cl)nc2n1`, the Activity rating in the experiment with Rattus norvegicus [6], in the experiment with Rattus norvegicus [7] and in the experiment with Rattus norvegicus [10] was 0% throughout.
With `CCNC(=O)Nc1nc2nc(C)ncc2cc1-c1c(Cl)cccc1Cl`, the Activity rating in the experiment with Rattus norvegicus [1], in the experiment with Rattus norvegicus [3] and in the experiment on Rattus norvegicus [4] was 0% in each case.
In the case of `Cc1ncc2cc(-c3c(Cl)cccc3Cl)c(NC(=O)OC(C)C)nc2n1`, the Activity rating is 0% in the experiment with Rattus norvegicus [6], 10% in the experiment with Rattus norvegicus [14] and 0% in the experiment with Rattus norvegicus [10]. In addition, the Decrease in the experiment filed under Rattus norvegicus [2] turned out to be 15%.
Regarding `Cc1ncc2cc(-c3c(Cl)cccc3Cl)c(NC(=O)c3ccccc3F)nc2n1`, the Activity rating in the experiment with Rattus norvegicus [6], with Rattus norvegicus [7] and in the experiment on Rattus norvegicus [10] was 0% throughout.
